# Molecular target: T1, glucokinase (GK) (Homo sapiens, UniProt P35557)
# T1 construct: I.D. No. 1 corresponds to residues 12-465 of glucokinase; made in house; host or cells: E. coli DH10b-T1r
# T1 sequence (P35557 with tags, fused parts or gaps isoform P35557-2): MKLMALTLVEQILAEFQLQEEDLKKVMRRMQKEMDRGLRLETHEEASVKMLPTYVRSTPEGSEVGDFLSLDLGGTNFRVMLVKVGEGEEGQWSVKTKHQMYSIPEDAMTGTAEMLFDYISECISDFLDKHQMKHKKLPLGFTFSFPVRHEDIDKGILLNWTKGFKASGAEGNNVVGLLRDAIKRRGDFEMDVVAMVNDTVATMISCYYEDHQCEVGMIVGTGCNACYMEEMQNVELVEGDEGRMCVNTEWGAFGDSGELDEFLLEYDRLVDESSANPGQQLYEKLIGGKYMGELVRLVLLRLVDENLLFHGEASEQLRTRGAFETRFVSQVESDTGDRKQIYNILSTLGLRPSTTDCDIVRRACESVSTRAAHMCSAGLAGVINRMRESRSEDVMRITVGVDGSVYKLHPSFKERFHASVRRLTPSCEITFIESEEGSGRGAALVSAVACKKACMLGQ
# Test: enzymatic glucokinase activity assay (ATP consumption, KinaseGlo luminescence)
# Assay type: biochemical
# Conditions: recombinant GK residues 12-465; 5 μM ATP, 5 mM Glucose; Kact = concentration that displays 50% of the maximal increase in GK activity; read-out: pKact
# Procedure, shortened: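 Activation was scored as ATP consumption, quantified by KinaseGlo luciferase luminescence after a 60 min room-temperature reaction. Reactions contained E. coli-expressed, purified GK, 5 μM ATP, 5 mM glucose, 10 mM MgCl2, 0.01% Brij35 and 2% DMSO at pH 7.2; pKact was fitted non-linearly.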
row,SMILES,EC50 [µM]
1,"Cc1cc(S(=O)(=O)c2cccc(F)c2)cc(=O)n1[C@H](CC1CCOCC1)C(=O)Nc1ncc(F)s1 [Example 190, (R)-2-(4-(3-fluorophenylsulfonyl)-6-methyl-2-oxopyridin-1(2H)-yl)-N-(5-fluorothiazol-2-yl)-3-(tetrahydro-2H-pyran-4-yl)propanamide]",> 15.8
2,"Cc1cc(S(=O)(=O)C2CCOCC2)cc(=O)n1[C@@H](CC1CCCC1)C(=O)Nc1ncc(Cl)s1 [Example 191, (S)-N-(5-chlorothiazol-2-yl)-3-cyclopentyl-2-(6-methyl-2-oxo-4-(tetrahydro-2H-pyran-4-ylsulfonyl)pyridin-1(2H)-yl)propanamide]",1.58 to 15.8
3,"Cc1cc(S(=O)(=O)C2CCOCC2)cc(=O)n1[C@H](CC1CCCC1)C(=O)Nc1ncc(Cl)s1 [Example 192, (R)-N-(5-chlorothiazol-2-yl)-3-cyclopentyl-2-(6-methyl-2-oxo-4-(tetrahydro-2H-pyran-4-ylsulfonyl)pyridin-1(2H)-yl)propanamide]",> 15.8
4,"Cc1cc(S(=O)(=O)C2CCOCC2)cc(=O)n1[C@@H](CC1CCCC1)C(=O)Nc1ncc(F)s1 [Example 193, (S)-3-cyclopentyl-N-(5-fluorothiazol-2-yl)-2-(6-methyl-2-oxo-4-(tetrahydro-2H-pyran-4-ylsulfonyl)pyridin-1(2H)-yl)propanamide]",1.58 to 15.8
5,"Cc1cc(S(=O)(=O)C2CCOCC2)cc(=O)n1[C@H](CC1CCCC1)C(=O)Nc1ncc(F)s1 [Example 194, (R)-3-cyclopentyl-N-(5-fluorothiazol-2-yl)-2-(6-methyl-2-oxo-4-(tetrahydro-2H-pyran-4-ylsulfonyl)pyridin-1(2H)-yl)propanamide]",> 15.8
6,"O=C(Nc1ncc(Cl)s1)[C@@H](CC1CCOCC1)n1cc(Cl)c(S(=O)(=O)C2CC2)cc1=O [Example 195, (R)-2-(5-chloro-4-(cyclopropylsulfonyl)-2-oxopyridin-1(2H)-yl)-N-(5-chlorothiazol-2-yl)-3-(tetrahydro-2H-pyran-4-yl)propanamide]",> 15.8
7,"O=C(Nc1ncc(Cl)s1)[C@H](CC1CCOCC1)n1cc(Cl)c(S(=O)(=O)C2CC2)cc1=O [Example 196, (S)-2-(5-chloro-4-(cyclopropylsulfonyl)-2-oxopyridin-1(2H)-yl)-N-(5-chlorothiazol-2-yl)-3-(tetrahydro-2H-pyran-4-yl)propanamide]",1.58 to 15.8
8,"O=C(Nc1ncc(F)s1)[C@@H](CC1CCOCC1)n1cc(Cl)c(S(=O)(=O)C2CC2)cc1=O [Example 197, (R)-2-(5-chloro-4-(cyclopropylsulfonyl)-2-oxopyridin-1(2H)-yl)-N-(5-fluorothiazol-2-yl)-3-(tetrahydro-2H-pyran-4-yl)propanamide]",> 15.8
9,"O=C(Nc1ncc(F)s1)[C@H](CC1CCOCC1)n1cc(Cl)c(S(=O)(=O)C2CC2)cc1=O [Example 198, (S)-2-(5-chloro-4-(cyclopropylsulfonyl)-2-oxopyridin-1(2H)-yl)-N-(5-fluorothiazol-2-yl)-3-(tetrahydro-2H-pyran-4-yl)propanamide]",1.58 to 15.8

# — US8163779B2, “Glucokinase activators” (Takeda San Diego, Inc., priority 2006, dated 2012)
